{
  "source": "patent US8686050B2",
  "about": "“Diglycidic ether derivative therapeutics and methods for their use” (British Columbia Cancer Agency Branch, priority 2008, dated 2014)",
  "key": {"[1]": {"molecular_target": "T1, AR interaction with the ARE on the PSA enhancer (Homo sapiens, UniProt P10275, T878A)", "T1 construct": "LNCaP cells express endogenous AR and secrete prostate-specific antigen (PSA); endogenous in cells; host or cells: LNCaP", "T1 sequence (P10275 1-920 T878A)": "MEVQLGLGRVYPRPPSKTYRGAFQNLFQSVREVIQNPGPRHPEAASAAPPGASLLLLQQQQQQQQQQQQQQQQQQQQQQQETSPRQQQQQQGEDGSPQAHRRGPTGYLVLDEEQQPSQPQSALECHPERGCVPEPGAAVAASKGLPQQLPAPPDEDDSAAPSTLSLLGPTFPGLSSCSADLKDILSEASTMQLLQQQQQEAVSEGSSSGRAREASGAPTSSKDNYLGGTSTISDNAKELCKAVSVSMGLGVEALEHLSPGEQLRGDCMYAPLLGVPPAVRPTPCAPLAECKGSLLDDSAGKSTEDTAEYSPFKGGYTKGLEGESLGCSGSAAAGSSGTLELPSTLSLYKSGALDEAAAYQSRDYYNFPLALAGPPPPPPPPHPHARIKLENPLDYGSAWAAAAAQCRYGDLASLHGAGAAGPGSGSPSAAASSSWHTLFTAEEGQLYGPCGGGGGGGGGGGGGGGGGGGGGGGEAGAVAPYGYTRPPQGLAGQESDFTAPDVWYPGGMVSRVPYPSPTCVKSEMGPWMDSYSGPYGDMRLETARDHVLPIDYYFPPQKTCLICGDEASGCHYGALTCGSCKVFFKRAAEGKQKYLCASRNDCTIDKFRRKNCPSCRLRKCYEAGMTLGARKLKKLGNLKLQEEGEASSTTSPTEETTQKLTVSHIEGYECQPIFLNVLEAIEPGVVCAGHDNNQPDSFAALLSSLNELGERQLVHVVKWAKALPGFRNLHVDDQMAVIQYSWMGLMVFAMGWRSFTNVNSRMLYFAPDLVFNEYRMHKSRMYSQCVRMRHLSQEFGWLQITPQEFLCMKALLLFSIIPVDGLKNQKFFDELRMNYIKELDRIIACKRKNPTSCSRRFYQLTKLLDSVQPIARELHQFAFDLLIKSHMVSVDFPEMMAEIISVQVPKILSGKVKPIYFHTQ", "assay": "ChIP of AR on the PSA enhancer ARE in LNCaP cells", "format": "cell-based", "conditions": "DHT 3 h or 16 h, 185-9-2 10 μg/ml"}, "[2]": {"molecular_target": "T2, VP16-ARTAD and Gal4-ARLBD (Homo sapiens, UniProt P10275)", "T2 construct": "amino acids 1-565 of the AR NTD fused to VP16 at the N-terminus; the LBD of the AR (amino acids 628-919; Gal4-ARLBD; the C terminus); expressed in transfected cells; host or cells: CV1", "T2 sequence (P10275 1-565)": "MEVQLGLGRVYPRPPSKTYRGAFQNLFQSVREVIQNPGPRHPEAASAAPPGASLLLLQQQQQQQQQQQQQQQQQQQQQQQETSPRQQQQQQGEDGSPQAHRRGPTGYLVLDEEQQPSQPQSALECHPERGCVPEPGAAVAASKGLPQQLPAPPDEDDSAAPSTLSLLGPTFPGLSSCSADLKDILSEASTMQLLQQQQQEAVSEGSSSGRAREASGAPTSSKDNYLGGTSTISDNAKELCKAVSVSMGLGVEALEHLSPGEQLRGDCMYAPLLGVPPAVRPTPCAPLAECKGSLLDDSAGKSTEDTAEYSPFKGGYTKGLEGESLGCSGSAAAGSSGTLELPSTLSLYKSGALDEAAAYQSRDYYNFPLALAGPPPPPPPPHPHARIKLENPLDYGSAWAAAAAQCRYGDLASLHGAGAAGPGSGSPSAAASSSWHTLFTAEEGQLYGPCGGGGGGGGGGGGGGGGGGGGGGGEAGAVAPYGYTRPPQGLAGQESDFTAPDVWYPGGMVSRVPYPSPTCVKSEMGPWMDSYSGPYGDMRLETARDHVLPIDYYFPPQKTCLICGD", "assay": "N/C interaction, mammalian two-hybrid in CV1 cells", "format": "cell-based", "conditions": "R1881, 24 hr, 185-9-2 10 μg/ml, bicalutamide 10 μM"}, "LNCaP cells": {"test_system": "LNCaP cells", "assay": "Androgen-dependent proliferation of LNCaP cells (BrdU incorporation)", "format": "cell-based, human", "conditions": "R1881 0.1 nM, 4 days; 185-9-2 5 μg/ml, bicalutamide 10 μM", "protocol": "The prostate gland is an androgen-dependent organ where androgens are the predominant mitogenic stimulus (Isaacs J T, Scott W W, Coffey D S., Prog Clin Biol Res. 1979; 33:133-44). This dependency on androgens provides the underlying rationale for treating prostate cancer with chemical or surgical castration. […] BrdU incorporation was measured 4 days later to indicate changes in proliferation in response to androgen (FIG. 12). […] Cancer Inst. Monogr. 49, 17-21)."}, "AR": {"molecular_target": "T3, AR (Homo sapiens, UniProt P10275, T878A)", "T3 sequence (P10275 1-920 T878A)": "T1 sequence (P10275 1-920 T878A)", "assay": "AR protein in harvested LNCaP xenografts (IHC, western blot)", "format": "in vivo, mice", "design": "LNCaP human prostate cancer cells express endogenous androgen receptor (AR); from tissue; host or cells: LNCaP xenografts harvested from castrated NOD-SCID mice", "conditions": "I.V. or I.T delivery", "protocol": "Levels of cytokeratin 18 were measured as an indication of amount of epithelial cells in the xenograft samples."}},
  "note": "Entries after “also recorded” stand apart in the source; their conditions may differ. Structures can show the parent of a compound that is named as a salt.",
  "data": [
    {"molecule": "CC(C)(c1ccc(OCC(O)CO)cc1)c1ccc(OCC(O)CCl)cc1", "note": "(stereo not shown) [185-9-2, BADGE.HCL.H2O]", "values": [
      {"measurement": "AR interaction with the ARE on the PSA enhancer in response to androgen (ChIP)", "setting": "[1]", "value": "inhibited AR interaction with the ARE"},
      {"measurement": "androgen-stimulated N/C interaction", "setting": "[2]", "value": "inhibit androgen-stimulated N/C interaction"},
      {"measurement": "androgen-dependent proliferation of LNCaP cells (BrdU incorporation)", "setting": "LNCaP cells", "value": "blocked androgen-dependent proliferation; also recorded: as effective as bicalutamide"},
      {"measurement": "levels of AR protein in xenografts", "setting": "AR", "value": "does not reduce levels of AR protein; also recorded: did not decrease levels of AR protein"}
    ]}
  ]
}
